Experimental data reported in US3948899A, “α-Cyanobenzylpiperazines and a process for producing the same” (Fuji Chemical Industry Co., Ltd., priority 1973, dated 1976).
Where a name gives a salt, the structure may show the parent alone.

Key:
[1] = Acute toxicity (LD50; per os, mice); type: in vivo; conditions: mouse, in vivo, po, dd-0train male mice
Procedure: 7. Acute Toxicity (See Table 7) Acute toxicity (LD50; per os, mice) was measured in dd-0train male mice.

mongrel adult dogs [2] = assay: Effects on coronary sinus oxygen tension (thoractomized anesthetized dogs, i.v.); type: in vivo, dog
Procedure: (§1) All experiments were conducted on male and female thoractomized mongrel adult dogs weighing about 10 Kg under anesthesia with pentobarbital sodium.
(§2) Arterial blood pressure was measured by pressure transducer (Nippon Koden MPU-0.5) connected with the cannula inserted from exposed carotid artery into aorta. Aortic blood flow was determined by means of electromagnetic flow meter (Nippon Koden MF-5) mounted at an origin of aorta. Coronary sinus out flow and coronary sinus oxygen tension were assessed by means of electromagnetic flow meter (Nippon Koden MF-5) and Po2 Macro electrode (Beckmann Moder 160-C), respectively, using Morawitz cannulization technique. Heart rate was measured by cardiotachometer (Nippon Koden RT-2) synchronized with systolic blood pressure of aorta.

mongrel adult dogs [3] = assay: Effects on coronary sinus out flow (thoractomized anesthetized dogs, i.v.); type: in vivo, dog
Procedure: as §1, §2

mongrel adult dogs [4] = assay: Effects on heart rate (thoractomized anesthetized dogs, i.v.); type: in vivo, dog
Procedure: as §1, §2

Structure (SMILES): COc1ccc(CN2CCNCC2)c(OC)c1OC [Vastarel F, 2,3,4 -trimethoxybenzylpiperazine dihydrochloride]
- LD50 [1]: 960 mg/kg
- Changes(%) of basal values, coronary sinus oxygen tension (mongrel adult dogs [2]; i.v. 0.2 mg/Kg, 1 min): +1.0%
- Changes(%) of basal values, coronary sinus oxygen tension (mongrel adult dogs [2]; i.v. 0.2 mg/Kg, 5 min): 0%
- Changes(%) of basal values, coronary sinus oxygen tension (mongrel adult dogs [2]; i.v. 0.2 mg/Kg, 10 min): 0%
- Changes(%) of basal values, coronary sinus oxygen tension (mongrel adult dogs [2]; i.v. 0.2 mg/Kg, 15 min): 0%
- Changes(%) of basal values, coronary sinus oxygen tension (mongrel adult dogs [2]; i.v. 0.2 mg/Kg, 20 min): 0%
- Changes(%) of basal values, coronary sinus oxygen tension (mongrel adult dogs [2]; i.v. 0.2 mg/Kg, 25 min): 0%
- Changes(%) of basal values, coronary sinus oxygen tension (mongrel adult dogs [2]; i.v. 0.2 mg/Kg, 30 min): 0%
- Changes(%) of basal values, coronary sinus oxygen tension (mongrel adult dogs [2]; i.v. 0.2 mg/Kg, imm.): +3.0%
- Changes(%) of basal values, coronary sinus oxygen tension (mongrel adult dogs [2]; i.v. 0.6 mg/Kg, 1 min): +5.5%
- Changes(%) of basal values, coronary sinus oxygen tension (mongrel adult dogs [2]; i.v. 0.6 mg/Kg, 5 min): +1.0%
- Changes(%) of basal values, coronary sinus oxygen tension (mongrel adult dogs [2]; i.v. 0.6 mg/Kg, 10 min): 0%
- Changes(%) of basal values, coronary sinus oxygen tension (mongrel adult dogs [2]; i.v. 0.6 mg/Kg, 15 min): 0%
- Changes(%) of basal values, coronary sinus oxygen tension (mongrel adult dogs [2]; i.v. 0.6 mg/Kg, 20 min): 0%
- Changes(%) of basal values, coronary sinus oxygen tension (mongrel adult dogs [2]; i.v. 0.6 mg/Kg, 25 min): 0%
- Changes(%) of basal values, coronary sinus oxygen tension (mongrel adult dogs [2]; i.v. 0.6 mg/Kg, 30 min): 0%
- Changes(%) of basal values, coronary sinus oxygen tension (mongrel adult dogs [2]; i.v. 0.6 mg/Kg, imm.): +9.0%
- Changes(%) of basal values, coronary sinus oxygen tension (mongrel adult dogs [2]; i.v. 2.0 mg/Kg, 1 min): +1.5%
- Changes(%) of basal values, coronary sinus oxygen tension (mongrel adult dogs [2]; i.v. 2.0 mg/Kg, 5 min): +2.0%
- Changes(%) of basal values, coronary sinus oxygen tension (mongrel adult dogs [2]; i.v. 2.0 mg/Kg, 10 min): +5.0%
- Changes(%) of basal values, coronary sinus oxygen tension (mongrel adult dogs [2]; i.v. 2.0 mg/Kg, 15 min): +5.0%
- Changes(%) of basal values, coronary sinus oxygen tension (mongrel adult dogs [2]; i.v. 2.0 mg/Kg, 20 min): +3.0%
- Changes(%) of basal values, coronary sinus oxygen tension (mongrel adult dogs [2]; i.v. 2.0 mg/Kg, 25 min): +0.5%
- Changes(%) of basal values, coronary sinus oxygen tension (mongrel adult dogs [2]; i.v. 2.0 mg/Kg, 30 min): 0%
- Changes(%) of basal values, coronary sinus oxygen tension (mongrel adult dogs [2]; i.v. 2.0 mg/Kg, imm.): +3.0%
- Increase in oxygen tension (mongrel adult dogs [2]; i.v., between 5 and 20 minutes): up to 5%
- Changes(%) of basal values, coronery sinus out flow (mongrel adult dogs [3]; i.v. 0.2 mg/Kg, 1 min): +1.0%
- Changes(%) of basal values, coronery sinus out flow (mongrel adult dogs [3]; i.v. 0.2 mg/Kg, 5 min): 0%
- Changes(%) of basal values, coronery sinus out flow (mongrel adult dogs [3]; i.v. 0.2 mg/Kg, 10 min): 0%
- Changes(%) of basal values, coronery sinus out flow (mongrel adult dogs [3]; i.v. 0.2 mg/Kg, 15 min): 0%
- Changes(%) of basal values, coronery sinus out flow (mongrel adult dogs [3]; i.v. 0.2 mg/Kg, 20 min): 0%
- Changes(%) of basal values, coronery sinus out flow (mongrel adult dogs [3]; i.v. 0.2 mg/Kg, 25 min): 0%
- Changes(%) of basal values, coronery sinus out flow (mongrel adult dogs [3]; i.v. 0.2 mg/Kg, 30 min): 0%
- Changes(%) of basal values, coronery sinus out flow (mongrel adult dogs [3]; i.v. 0.2 mg/Kg, imm.): +4.0%
- Changes(%) of basal values, coronery sinus out flow (mongrel adult dogs [3]; i.v. 0.6 mg/Kg, 1 min): +2.5%
- Changes(%) of basal values, coronery sinus out flow (mongrel adult dogs [3]; i.v. 0.6 mg/Kg, 5 min): +2.5%
- Changes(%) of basal values, coronery sinus out flow (mongrel adult dogs [3]; i.v. 0.6 mg/Kg, 10 min): 0%
- Changes(%) of basal values, coronery sinus out flow (mongrel adult dogs [3]; i.v. 0.6 mg/Kg, 15 min): 0%
- Changes(%) of basal values, coronery sinus out flow (mongrel adult dogs [3]; i.v. 0.6 mg/Kg, 20 min): 0%
- Changes(%) of basal values, coronery sinus out flow (mongrel adult dogs [3]; i.v. 0.6 mg/Kg, 25 min): 0%
- Changes(%) of basal values, coronery sinus out flow (mongrel adult dogs [3]; i.v. 0.6 mg/Kg, 30 min): 0%
- Changes(%) of basal values, coronery sinus out flow (mongrel adult dogs [3]; i.v. 0.6 mg/Kg, imm.): +6.0%
- Changes(%) of basal values, coronery sinus out flow (mongrel adult dogs [3]; i.v. 2.0 mg/Kg, 1 min): -3.0%
- Changes(%) of basal values, coronery sinus out flow (mongrel adult dogs [3]; i.v. 2.0 mg/Kg, 5 min): +3.0%
- Changes(%) of basal values, coronery sinus out flow (mongrel adult dogs [3]; i.v. 2.0 mg/Kg, 10 min): +9.0%
- Changes(%) of basal values, coronery sinus out flow (mongrel adult dogs [3]; i.v. 2.0 mg/Kg, 15 min): +8.0%
- Changes(%) of basal values, coronery sinus out flow (mongrel adult dogs [3]; i.v. 2.0 mg/Kg, 20 min): +4.0%
- Changes(%) of basal values, coronery sinus out flow (mongrel adult dogs [3]; i.v. 2.0 mg/Kg, 25 min): +1.0%
- Changes(%) of basal values, coronery sinus out flow (mongrel adult dogs [3]; i.v. 2.0 mg/Kg, 30 min): 0%
- Changes(%) of basal values, coronery sinus out flow (mongrel adult dogs [3]; i.v. 2.0 mg/Kg, imm.): -13.0%
- Changes(%) of basal values, heart rate (mongrel adult dogs [4]; i.v. 0.2 mg/Kg, 1 min): 0%
- Changes(%) of basal values, heart rate (mongrel adult dogs [4]; i.v. 0.2 mg/Kg, 5 min): -1.5%
- Changes(%) of basal values, heart rate (mongrel adult dogs [4]; i.v. 0.2 mg/Kg, 10 min): -1.0%
- Changes(%) of basal values, heart rate (mongrel adult dogs [4]; i.v. 0.2 mg/Kg, 15 min): 0%
- Changes(%) of basal values, heart rate (mongrel adult dogs [4]; i.v. 0.2 mg/Kg, 20 min): 0%
- Changes(%) of basal values, heart rate (mongrel adult dogs [4]; i.v. 0.2 mg/Kg, 25 min): 0%
- Changes(%) of basal values, heart rate (mongrel adult dogs [4]; i.v. 0.2 mg/Kg, 30 min): 0%
- Changes(%) of basal values, heart rate (mongrel adult dogs [4]; i.v. 0.2 mg/Kg, imm.): +1.5%
- Changes(%) of basal values, heart rate (mongrel adult dogs [4]; i.v. 0.6 mg/Kg, 1 min): +0.5%
- Changes(%) of basal values, heart rate (mongrel adult dogs [4]; i.v. 0.6 mg/Kg, 5 min): +0.5%
- Changes(%) of basal values, heart rate (mongrel adult dogs [4]; i.v. 0.6 mg/Kg, 10 min): 0%
- Changes(%) of basal values, heart rate (mongrel adult dogs [4]; i.v. 0.6 mg/Kg, 15 min): -1.0%
- Changes(%) of basal values, heart rate (mongrel adult dogs [4]; i.v. 0.6 mg/Kg, 20 min): -1.0%
- Changes(%) of basal values, heart rate (mongrel adult dogs [4]; i.v. 0.6 mg/Kg, 25 min): -1.0%
- Changes(%) of basal values, heart rate (mongrel adult dogs [4]; i.v. 0.6 mg/Kg, 30 min): 0%
- Changes(%) of basal values, heart rate (mongrel adult dogs [4]; i.v. 0.6 mg/Kg, imm.): +1.5%
- Changes(%) of basal values, heart rate (mongrel adult dogs [4]; i.v. 2.0 mg/Kg, 1 min): -2.0%
- Changes(%) of basal values, heart rate (mongrel adult dogs [4]; i.v. 2.0 mg/Kg, 5 min): -2.0%
- Changes(%) of basal values, heart rate (mongrel adult dogs [4]; i.v. 2.0 mg/Kg, 10 min): -1.5%
- Changes(%) of basal values, heart rate (mongrel adult dogs [4]; i.v. 2.0 mg/Kg, 15 min): -1.0%
- Changes(%) of basal values, heart rate (mongrel adult dogs [4]; i.v. 2.0 mg/Kg, 20 min): -1.5%
- Changes(%) of basal values, heart rate (mongrel adult dogs [4]; i.v. 2.0 mg/Kg, 25 min): -1.0%
- Changes(%) of basal values, heart rate (mongrel adult dogs [4]; i.v. 2.0 mg/Kg, 30 min): -1.5%
